Experimental data published in patent US4719235A, “Methods and compositions for treating viral infection” (Kern; Gerald N., priority 1985, dated 1988).

How the values were obtained:
HSV-2 [1] = experiment: Titration of HSV-2 after contact with serum-free docusate sodium solutions (plaque assay on MA-104 cells); type: cell-based, Herpes Simplex Type 2
[2] = tested on: primary fibroblasts from human foreskin; experiment: Cytotoxicity in solutions free of serum, foreskin fibroblasts; type: cell-based; set-up: key to Foreskin (toxicity): 0: Cells had normal morphology; 4+: >90% of cells showed CTE; settings: 24 hours, 37° C.
Protocol: (§1) The cell lines used to evaluate cytotoxicity of docusate sodium were MA-104 derived from monkey kidneys, HeLa derived from human uterine carcinoma and primary fibroblasts from human foreskin. The cells were grown to confluency in 60×15 mm dishes. The cell monolayers were washed free of growth medium and 5 ml of serum-less growth medium containing docusate sodium at various concentrations was added. The curtures were incubated 24 hours at 37° C. and the cells then examined microscopically for cytotoxic effects (CTE). Controls were done in the same manner except that they were not exposed to docusate sodium.

[3] = as above; type: cell-based, human; set-up: key to Foreskin (toxicity): 0: Cells had normal morphology; 4+: >90% of cells showed CTE; settings: human, foreskin fibroblasts, 0.2 mg/ml, 37° C., read-out: Foreskin (toxicity)
HSV-2 [4] = experiment: Pretreatment of MA-104 cells prior to exposure to HSV-2; type: cell-based, Herpes Simplex Type 2; settings: 0.02 mg/ml
Protocol: In this Example the effect that initially contacting (pretreating) MA-104 cells with docusate sodium has on subsequent exposure of such pretreated cells to HSV-2 virus was studied.
MA-104 cells were washed free of growth medium and the cells were exposed to 0.02 mg/ml docusate sodium in serum-less growth medium for one hour. The docusate sodium solution was poured off, the cells washed twice, and then exposed to appropriately diluted HSV-2. A control solution prepared as above except for exposure to docusate sodium was also provided. After one hour at 37° C., the cells were overlayed with agar and incubated for 3 days at 37° C. to allow plaques to develop.

MA-104 [5] = experiment: Cytotoxicity in solutions free of serum, MA-104; type: cell-based, monkey; set-up: key to MA-104 (toxicity): 0: Cells had normal morphology; 4+: >90% of cells showed CTE; settings: 24 hours, 37° C.
Protocol: as §1

[6] = Cytotoxicity in solutions free of serum, MA-104; type: cell-based, monkey; set-up: key to MA-104 (toxicity): 0: Cells had normal morphology; 4+: >90% of cells showed CTE; settings: monkey, ma-104 cells, 0.2 mg/ml, 37° C., read-out: MA-104 (toxicity)
Protocol: as §1

Coxsackievirus B-5 = experiment: Titration of Coxsackievirus B-5 after contact with docusate sodium solutions; type: cell-based; settings: 0.2 mg/ml
[7] = Cytotoxicity in solutions free of serum, selected cell lines (overall conclusion); type: cell-based; settings: serum-free medium, read-out: concentration toxic to the cells
Protocol: as §1

Rotavirus = experiment: microbe, parasite or virus in culture; type: cell-based; settings: MA104, 0.25 h, pretreatment 15 minutes, read-out: % decrease in pfu
Rotavirus strain SA-11 = experiment: Titration of Rotavirus strain SA-11 after contact with docusate sodium solutions; type: cell-based; settings: for plaque forming units: 0.2 mg/ml; for pfu/ml: 1 mg/ml
Influenza A virus = experiment: Pretreatment of MDCK cells prior to exposure to Influenza A virus; settings: 0.1 mg/ml
Protocol: Virus infectivity was determined by cytopathic effects (CPE).
The same procedure was used for this example as was used for Example 24 except that MDCK cells were substituted for HeLa cells and Influenza A virus was substituted for Respiratory Syncytial Virus. Two experiments were run.

[8] = tested on: primary fibroblasts from human foreskin; experiment: Cytotoxicity in solutions containing serum, foreskin fibroblasts; type: cell-based; set-up: key to Foreskin (Cytotoxic effect): 0: Cells have normal morphology; 4+: >90% of cells showed CTE.; ±c: less than 10% of cells showed CTE; settings: 0.01 mg/ml, 2% fetal calf serum, 24 hours, 37° C.
Protocol: (§2) The cells were grown to confluency in 60×15 mm dishes. The cell monolayers were washed free of growth medium and 5 ml of serum-less growth medium containing docusate sodium at various concentrations was added. The curtures were incubated 24 hours at 37° C. and the cells then examined microscopically for cytotoxic effects (CTE). Controls were done in the same manner except that they were not exposed to docusate sodium.
(§3) The same procedure that was used for Example 17 was used for this Example except that the medium used for growing the cells contained 2% by volume fetal calf serum.

[9] = as above; type: cell-based, human; set-up: key to Foreskin (Cytotoxic effect): 0: Cells have normal morphology; 4+: >90% of cells showed CTE.; ±c: less than 10% of cells showed CTE; settings: human, foreskin fibroblasts, 2% fetal calf serum, 37° C., read-out: Foreskin (Cytotoxic effect)
Protocol: as §2, §3

[10] = tested on: selected cell lines (MA-104, HeLa, Foreskin)
HSV-2 [11] = experiment: Treatment of MA-104 cells infected with HSV-2; type: cell-based, Herpes Simplex Type 2; settings: 0.02 mg/ml for one hour at 37° C., 6 and 24 hours after infection
Protocol: MA-104 cells were washed free of growth medium and exposed to appropriately diluted HSV-2 for one hour at 37° C. At 6 and 24 hours after infection, the MA-104 cells were exposed to a solution containing 0.02 mg of docusate sodium per ml of solution for one hour at 37° C. The docusate sodium solution was poured off, agar overlay added, and the exposed cells incubated for 3 days at 37° C. to provide for plaque development.

MA-104 [12] = experiment: Cytotoxicity in solutions containing serum, MA-104; type: cell-based, monkey; set-up: key: 0: Cells have normal morphology; 4+: >90% of cells showed CTE.; ±c: less than 10% of cells showed CTE; settings: 2% fetal calf serum, 24 hours, 37° C.
Protocol: as §2, §3

HSV-2 [13] = experiment: Titration of HSV-2 after contact with docusate sodium solutions containing 10% fetal calf serum; type: cell-based, Herpes Simplex Type 2
HeLa = experiment: Cytotoxicity in solutions free of serum, HeLa; type: cell-based, human; set-up: key to HeLa (toxicity): 0: Cells had normal morphology; 4+: >90% of cells showed CTE; settings: 24 hours, 37° C.
Protocol: as §1

[14] = Cytotoxicity in solutions free of serum, HeLa; type: cell-based, human; set-up: key to HeLa (toxicity): 0: Cells had normal morphology; 4+: >90% of cells showed CTE; settings: human, hela cells, 0.2 mg/ml, 37° C., read-out: HeLa (toxicity)
Protocol: as §1

[15] = tested on: Respiratory syncytial virus (RSV); experiment: Inactivation of Respiratory Syncytial Virus (CPE on HeLa cells); type: cell-based

## CCCCC(CC)COC(=O)CC(C(=O)OCC(CC)CCCC)S(=O)(=O)O (stereo not drawn) [docusate sodium, 1,4-bis(2-ethylhexyl)sodium sulfosuccinate]
HSV-2 [1]; Human alphaherpesvirus 2, MA104, 0.25 h, 0.01 mg/ml, 15 min, 37° C., read-out: % Inactivation of HSV-2
  killing at 10 µg/mL: 19%
HSV-2 [1]; Human alphaherpesvirus 2, MA104, 0.25 h, 0.02 mg/ml, 15 min, 37° C., read-out: % Inactivation of HSV-2
  killing at 20 µg/mL: 70%
HSV-2 [1]; Human alphaherpesvirus 2, MA104, 0.25 h, 0.03 mg/ml, 15 min, 37° C., read-out: % Inactivation of HSV-2
  killing at 30 µg/mL: 97%
HSV-2 [1]; Human alphaherpesvirus 2, MA104, 0.25 h, 0.04 mg/ml, 15 min, 37° C., read-out: % Inactivation of HSV-2
  killing at 40 µg/mL: 100%
HSV-2 [1]; Human alphaherpesvirus 2, MA104, 0.25 h, 0.05 mg/ml, 15 min, 37° C., read-out: % Inactivation of HSV-2
  killing at 50 µg/mL: 100%
HSV-2 [1]; Human alphaherpesvirus 2, MA104, 0.25 h, 0.1 mg/ml, 15 min, 37° C., read-out: % Inactivation of HSV-2
  killing at 100 µg/mL: 100%
HSV-2 [1]; Human alphaherpesvirus 2, MA104, 0.25 h, 0.2 mg/ml, 15 min, 37° C., read-out: % Inactivation of HSV-2
  killing at 200 µg/mL: 100%
HSV-2 [1]; concentrations as low as 0.02 mg/ml
  inactivation of HSV-2 (conclusion): effectively inactivates HSV-2
[2]; 0.01 mg/ml
  Foreskin (toxicity): 0
[2]; 0.05 mg/ml
  Foreskin (toxicity): 4+ (>90% of cells showed CTE.)
[2]; 0.1 mg/ml
  Foreskin (toxicity): 4+ (>90% of cells showed CTE.)
[3]
  cytotoxicity at 24 h: > 90%
HSV-2 [4]; pretreatment
  plaque formation (conclusion): substantial drop in plaque formation
HSV-2 [4]; pretreatment one hour, serum-less (control 548)
  plaque forming units/ml (pfu/ml): 26 pfu/ml
HSV-2 [4]; Human alphaherpesvirus 2, MA104, 1 h, pretreatment one hour, serum-less, read-out: % decrease in pfu
  inhibition at 20 µg/mL: 95%
MA-104 [5]; 0.01 mg/ml
  MA-104 (toxicity): 0
MA-104 [5]; 0.05 mg/ml
  MA-104 (toxicity): 4+ (>90% of cells showed CTE.)
MA-104 [5]; 0.1 mg/ml
  MA-104 (toxicity): 4+ (>90% of cells showed CTE.)
[6]
  cytotoxicity at 24 h: > 90%
Coxsackievirus B-5
  inactivation of Coxsackievirus B-5 (conclusion): did not inactivate Coxsackievirus B-5
Coxsackievirus B-5; exposure time 0 minutes (control 30,000)
  pfu/ml: 12,500 pfu/ml
Coxsackievirus B-5; exposure time 15 minutes
  pfu/ml: 23,000 pfu/ml
Coxsackievirus B-5; exposure time 60 minutes (control 25,500)
  pfu/ml: 30,000 pfu/ml
[7]
  MCC at 24 h: 10 to 50 µg/mL
Rotavirus; 0.04 mg/ml
  inhibition at 40 µg/mL: 10%
Rotavirus; 0.05 mg/ml
  inhibition at 50 µg/mL: 70%
Rotavirus strain SA-11; exposure time 0 minutes (control 17,000)
  plaque forming units: 16,000 pfu/ml
Rotavirus strain SA-11; exposure time 15 minutes
  plaque forming units: 19,000 pfu/ml
Rotavirus strain SA-11; exposure time 60 minutes (control 13,000)
  plaque forming units: 27,000 pfu/ml
Rotavirus strain SA-11; exposure time 0 minutes (control 46,500)
  pfu/ml: 45,000 pfu/ml
Rotavirus strain SA-11; exposure time 60 minutes (control 49,000)
  pfu/ml: 51,000 pfu/ml
Rotavirus strain SA-11; 0.2 and 1 mg/ml
  inactivation of Rotavirus SA-11 (conclusion): did not inactivate Rotavirus SA-11
Influenza A virus; experiment 1, virus dilution 10^-1 (control +)
  Presence of CPE: -
Influenza A virus; experiment 1, virus dilution 10^-2 (control +)
  Presence of CPE: -
Influenza A virus; experiment 1, virus dilution 10^-3 (control -)
  Presence of CPE: -
Influenza A virus; experiment 1, virus dilution 10^-4 (control -)
  Presence of CPE: -
Influenza A virus; experiment 2, virus dilution 10^-2 (control +)
  Presence of CPE: -
Influenza A virus; experiment 2, virus dilution 10^-3 (control -)
  Presence of CPE: -
Influenza A virus; experiment 2, virus dilution 10^-4 (control -)
  Presence of CPE: -
[8]
  Foreskin (Cytotoxic effect): 0
[9]; 0.02 mg/ml
  cytotoxicity at 24 h: < 10%
[9]; 0.03 mg/ml
  cytotoxicity at 24 h: > 90%
[9]; 0.04 mg/ml
  cytotoxicity at 24 h: > 90%
[10]
  effect of serum on cytotoxicity (conclusion): presence of serum reduced the cytotoxicity
  relative sensitivity of cell lines (conclusion): MA-104 cells were less sensitive to docusate sodium than were HeLa and foreskin fibroblast cells
HSV-2 [11]
  inactivation of HSV-2 in cells infected prior to contact (conclusion): not effective in inactivating HSV-2 virus in cells infected with HSV-2
MA-104 [12]; 0.01 mg/ml
  MA-104 (Cytotoxic effect): 0
MA-104 [12]; 0.02 mg/ml
  MA-104 (Cytotoxic effect): 0
MA-104 [12]; 0.03 mg/ml
  MA-104 (Cytotoxic effect): 0
MA-104 [12]; 0.04 mg/ml
  MA-104 (Cytotoxic effect): 0
HSV-2 [13]; 10% fetal calf serum vs serum absent
  concentration required for a given percentage of HSV-2 inactivation (conclusion): higher concentrations of docusate sodium were required
HSV-2 [13]; Human alphaherpesvirus 2, 0.25 h, 0.01 mg/ml, 10% fetal calf serum, 15 min, 37° C., read-out: % Inactivation of HSV-2
  killing at 10 µg/mL: 10%
HSV-2 [13]; Human alphaherpesvirus 2, 0.25 h, 0.1 mg/ml, 10% fetal calf serum, 15 min, 37° C., read-out: % Inactivation of HSV-2
  killing at 100 µg/mL: 10%
HSV-2 [13]; Human alphaherpesvirus 2, 0.25 h, 0.2 mg/ml, 10% fetal calf serum, 15 min, 37° C., read-out: % Inactivation of HSV-2
  killing at 200 µg/mL: 95%
HeLa; 0.01 mg/ml
  HeLa (toxicity): 0
HeLa; 0.05 mg/ml
  HeLa (toxicity): 4+ (>90% of cells showed CTE.)
HeLa; 0.1 mg/ml
  HeLa (toxicity): 4+ (>90% of cells showed CTE.)
[14]
  cytotoxicity at 24 h: > 90%
[15]
  Presence of CPE: -
  inactivation of RSV (conclusion): RSV was inactivated
